In PubChem BioAssay (NCI):
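Where inhibition never reached the appropriate level, the endpoint shown equals the highest concentration tested. Otherwise, values were interpolated linearly from a five-concentration, 48-hour dose response in 96-well plates. TGI: total growth inhibition.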

Legend:
Assay in all cases: NCI-60 cell line screen, 48 h
HL-60(TB) leukemia = tested on: HL-60(TB) leukemia
U251 CNS = tested on: U251 CNS
MDA-MB-231 breast = tested on: MDA-MB-231 breast
SNB-75 CNS = tested on: SNB-75 CNS
SK-OV-3 ovarian = tested on: SK-OV-3 ovarian
T-47D breast = tested on: T-47D breast
HT29 colon = tested on: HT29 colon
SF-295 CNS = tested on: SF-295 CNS
SW-620 colon = tested on: SW-620 colon
CCRF-CEM leukemia = tested on: CCRF-CEM leukemia
RXF 393 renal = tested on: RXF 393 renal
SF-268 CNS = tested on: SF-268 CNS
SK-MEL-5 melanoma = tested on: SK-MEL-5 melanoma
IGROV1 ovarian = tested on: IGROV1 ovarian
HOP-92 NSCLC = tested on: HOP-92 NSCLC
HS 578T breast = tested on: HS 578T breast
SK-MEL-2 melanoma = tested on: SK-MEL-2 melanoma
NCI-H23 lung = tested on: NCI-H23 lung
LOX IMVI melanoma = tested on: LOX IMVI melanoma
HCT-116 colon = tested on: HCT-116 colon
A549 NSCLC = tested on: A549 NSCLC
MDA-MB-435 = tested on: MDA-MB-435
M14 melanoma = tested on: M14 melanoma
PC-3 prostate = tested on: PC-3 prostate
UACC-62 melanoma = tested on: UACC-62 melanoma
K-562 leukemia = tested on: K-562 leukemia
UO-31 renal = tested on: UO-31 renal
SK-MEL-28 melanoma = tested on: SK-MEL-28 melanoma
DU-145 prostate = tested on: DU-145 prostate
SF-539 CNS = tested on: SF-539 CNS
RPMI-8226 leukemia = tested on: RPMI-8226 leukemia
NCI-H460 lung = tested on: NCI-H460 lung
HOP-62 NSCLC = tested on: HOP-62 NSCLC
UACC-257 melanoma = tested on: UACC-257 melanoma
OVCAR-5 ovarian = tested on: OVCAR-5 ovarian
COLO 205 colon = tested on: COLO 205 colon
HCT-15 colon = tested on: HCT-15 colon
SN12C renal = tested on: SN12C renal
MALME-3M melanoma = tested on: MALME-3M melanoma
MDA-N = tested on: MDA-N
NCI-H522 lung = tested on: NCI-H522 lung
SNB-19 CNS = tested on: SNB-19 CNS
TK-10 renal = tested on: TK-10 renal
NCI/ADR-RES ovarian = tested on: NCI/ADR-RES ovarian
OVCAR-8 ovarian = tested on: OVCAR-8 ovarian
OVCAR-4 ovarian = tested on: OVCAR-4 ovarian
A498 renal = tested on: A498 renal
MOLT-4 leukemia = tested on: MOLT-4 leukemia
KM12 colon = tested on: KM12 colon
MCF7 breast = tested on: MCF7 breast
ACHN renal = tested on: ACHN renal
EKVX NSCLC = tested on: EKVX NSCLC
CAKI-1 renal = tested on: CAKI-1 renal
786-0 renal = tested on: 786-0 renal
HCC-2998 colon = tested on: HCC-2998 colon
OVCAR-3 ovarian = tested on: OVCAR-3 ovarian
NCI-H226 lung = tested on: NCI-H226 lung
SR leukemia = tested on: SR leukemia

CC(C)[C@]12O[C@H]1[C@@H]1O[C@@]13[C@@]1(C)CCC4=C(COC4=O)[C@@H]1C[C@@H]1O[C@@]13C2=O
TGI (HL-60(TB) leukemia): 0.0249 µM
TGI (U251 CNS): > 78.7 µM
TGI (MDA-MB-231 breast): 0.834 µM
TGI (SNB-75 CNS): 0.0444 µM
TGI (SK-OV-3 ovarian): > 100 µM
TGI (T-47D breast): > 100 µM
TGI (HT29 colon): > 100 µM
TGI (SF-295 CNS): > 100 µM
TGI (SW-620 colon): > 42.1 µM
TGI (CCRF-CEM leukemia): > 100 µM
TGI (RXF 393 renal): < 0.0158 µM
TGI (SF-268 CNS): 0.522 µM
TGI (SK-MEL-5 melanoma): 0.0309 µM
TGI (IGROV1 ovarian): > 100 µM
TGI (HOP-92 NSCLC): 0.0829 µM
TGI (HS 578T breast): 0.0882 µM
TGI (SK-MEL-2 melanoma): 0.0151 µM
TGI (NCI-H23 lung): < 0.0276 µM
TGI (LOX IMVI melanoma): > 100 µM
TGI (HCT-116 colon): > 100 µM
TGI (A549 NSCLC): > 100 µM
TGI (MDA-MB-435): 0.0264 µM
TGI (M14 melanoma): 0.0493 µM
TGI (PC-3 prostate): 2.11 µM
TGI (UACC-62 melanoma): 0.0312 µM
TGI (K-562 leukemia): > 100 µM
TGI (UO-31 renal): > 100 µM
TGI (SK-MEL-28 melanoma): 0.0397 µM
TGI (DU-145 prostate): > 28.9 µM
TGI (SF-539 CNS): 0.0428 µM
TGI (RPMI-8226 leukemia): 0.063 µM
TGI (NCI-H460 lung): > 100 µM
TGI (HOP-62 NSCLC): 0.115 µM
TGI (UACC-257 melanoma): 0.0669 µM
TGI (OVCAR-5 ovarian): > 100 µM
TGI (COLO 205 colon): 0.025 µM
TGI (HCT-15 colon): > 100 µM
TGI (SN12C renal): > 100 µM
TGI (MALME-3M melanoma): 0.0541 µM
TGI (MDA-N): 0.0265 µM
TGI (NCI-H522 lung): 0.328 µM
TGI (SNB-19 CNS): > 40.9 µM
TGI (TK-10 renal): > 100 µM
TGI (NCI/ADR-RES ovarian): > 53.2 µM
TGI (OVCAR-8 ovarian): > 100 µM
TGI (OVCAR-4 ovarian): 0.0621 µM
TGI (A498 renal): 0.0685 µM
TGI (MOLT-4 leukemia): 0.3 µM
TGI (KM12 colon): > 22.6 µM
TGI (MCF7 breast): > 100 µM

Cc1ccc(S(=O)(=O)N/N=C2\CC3C4C=CC3C2C4)cc1 (stereo not given)
TGI (HL-60(TB) leukemia): > 100 µM
TGI (U251 CNS): > 100 µM
TGI (MDA-MB-231 breast): > 100 µM
TGI (SK-OV-3 ovarian): > 100 µM
TGI (T-47D breast): > 100 µM
TGI (HT29 colon): > 100 µM
TGI (SF-295 CNS): > 100 µM
TGI (SW-620 colon): > 100 µM
TGI (CCRF-CEM leukemia): > 100 µM
TGI (RXF 393 renal): > 100 µM
TGI (SF-268 CNS): > 100 µM
TGI (SK-MEL-5 melanoma): > 100 µM
TGI (ACHN renal): > 100 µM
TGI (IGROV1 ovarian): > 100 µM
TGI (HOP-92 NSCLC): > 100 µM
TGI (HS 578T breast): > 100 µM
TGI (SK-MEL-2 melanoma): > 100 µM
TGI (EKVX NSCLC): > 100 µM
TGI (NCI-H23 lung): > 100 µM
TGI (LOX IMVI melanoma): > 100 µM
TGI (CAKI-1 renal): > 100 µM
TGI (HCT-116 colon): > 100 µM
TGI (A549 NSCLC): > 100 µM
TGI (MDA-MB-435): > 100 µM
TGI (M14 melanoma): > 100 µM
TGI (786-0 renal): > 100 µM
TGI (PC-3 prostate): > 100 µM
TGI (UACC-62 melanoma): > 100 µM
TGI (K-562 leukemia): > 100 µM
TGI (UO-31 renal): 40.2 µM
TGI (SK-MEL-28 melanoma): > 100 µM
TGI (DU-145 prostate): > 100 µM
TGI (SF-539 CNS): > 100 µM
TGI (HCC-2998 colon): > 100 µM
TGI (NCI-H460 lung): > 100 µM
TGI (HOP-62 NSCLC): > 100 µM
TGI (UACC-257 melanoma): > 100 µM
TGI (OVCAR-5 ovarian): > 100 µM
TGI (COLO 205 colon): > 100 µM
TGI (OVCAR-3 ovarian): > 100 µM
TGI (HCT-15 colon): > 100 µM
TGI (SN12C renal): > 100 µM
TGI (MALME-3M melanoma): > 100 µM
TGI (MDA-N): > 100 µM
TGI (NCI-H522 lung): > 100 µM
TGI (SNB-19 CNS): > 100 µM
TGI (TK-10 renal): > 100 µM
TGI (NCI/ADR-RES ovarian): > 100 µM
TGI (NCI-H226 lung): > 100 µM
TGI (OVCAR-8 ovarian): > 100 µM
TGI (OVCAR-4 ovarian): > 100 µM
TGI (A498 renal): > 100 µM
TGI (MOLT-4 leukemia): > 100 µM
TGI (KM12 colon): > 100 µM
TGI (MCF7 breast): > 100 µM

CN1C(=O)CC2CCCN2C1=O (stereo not given)
TGI (U251 CNS): > 100 µM
TGI (MDA-MB-231 breast): > 100 µM
TGI (SNB-75 CNS): > 100 µM
TGI (SK-OV-3 ovarian): > 100 µM
TGI (T-47D breast): > 100 µM
TGI (HT29 colon): > 100 µM
TGI (SF-295 CNS): > 100 µM
TGI (SW-620 colon): > 100 µM
TGI (CCRF-CEM leukemia): > 100 µM
TGI (RXF 393 renal): > 100 µM
TGI (SF-268 CNS): > 100 µM
TGI (SK-MEL-5 melanoma): > 100 µM
TGI (ACHN renal): > 100 µM
TGI (IGROV1 ovarian): > 100 µM
TGI (HOP-92 NSCLC): > 100 µM
TGI (HS 578T breast): > 100 µM
TGI (SK-MEL-2 melanoma): > 100 µM
TGI (EKVX NSCLC): > 100 µM
TGI (NCI-H23 lung): > 100 µM
TGI (LOX IMVI melanoma): > 100 µM
TGI (CAKI-1 renal): > 100 µM
TGI (A549 NSCLC): > 100 µM
TGI (MDA-MB-435): > 100 µM
TGI (M14 melanoma): > 100 µM
TGI (786-0 renal): > 100 µM
TGI (PC-3 prostate): > 100 µM
TGI (UACC-62 melanoma): > 100 µM
TGI (K-562 leukemia): > 100 µM
TGI (UO-31 renal): > 100 µM
TGI (SK-MEL-28 melanoma): > 100 µM
TGI (DU-145 prostate): > 100 µM
TGI (SF-539 CNS): > 100 µM
TGI (RPMI-8226 leukemia): > 100 µM
TGI (HCC-2998 colon): > 100 µM
TGI (NCI-H460 lung): > 100 µM
TGI (HOP-62 NSCLC): > 100 µM
TGI (UACC-257 melanoma): > 100 µM
TGI (OVCAR-5 ovarian): > 100 µM
TGI (COLO 205 colon): > 100 µM
TGI (OVCAR-3 ovarian): > 100 µM
TGI (HCT-15 colon): > 100 µM
TGI (MALME-3M melanoma): > 100 µM
TGI (MDA-N): > 100 µM
TGI (NCI-H522 lung): > 100 µM
TGI (SNB-19 CNS): > 100 µM
TGI (TK-10 renal): > 100 µM
TGI (NCI/ADR-RES ovarian): > 100 µM
TGI (NCI-H226 lung): > 100 µM
TGI (SR leukemia): > 100 µM
TGI (OVCAR-8 ovarian): > 100 µM
TGI (OVCAR-4 ovarian): > 100 µM
TGI (A498 renal): > 100 µM
TGI (MOLT-4 leukemia): > 100 µM
TGI (KM12 colon): > 100 µM
TGI (MCF7 breast): > 100 µM
